Reference: US20080139455A1, “COMPOUNDS AND METHODS OF TREATING METABOLIC SYNDROME AND INFLAMMATION” (Forbes Medi-Tech (Research), Inc., priority 2006, published 2008)

Experiments:
Rat pancreatic islets = assay: Protection of islets by an SPT inhibitor (propidium iodide staining, flow cytometry); assay type: cell-based; settings: 3 days
Experimental: Islet protection by an exemplary compound is evaluated in an assay according to Eitel, K, et al. Biochem. Biophys. Res. Commun. 299: 853-6 (2002), and results obtained in this assay are reported below in Table 4. Rat pancreatic islets are cultured with control medium (RPMI 1640 supplemented with 10% fetal bovine serum, antibiotics and made 8% in glucose) or in medium supplemented with I millimolar sodium palmitate (Fatty Acid Medium) during a period of 3 days. The culture medium is changed after 2 days to an identical composition culture medium with fresh inhibitor in the appropriate wells. Cells are stained with propidium iodide (PI), washed and propidium staining of cells (as a measure of cellular DNA content) is assessed by flow cytometry. The percentage of cells having less than the normal amount of PI staining is considered to be apoptotic cells (Eitel, K, et al. (2002)).

SPT [1] = target: T1, SPT (Homo sapiens, UniProt O15269+O15270); assay: Serine palmitoyltransferase activity, Assay C ([3H]serine incorporation into lipids, cell homogenates); assay type: biochemical; settings: 37° C. for 20 min, at the doses indicated
T1 sequence (O15269 1-473): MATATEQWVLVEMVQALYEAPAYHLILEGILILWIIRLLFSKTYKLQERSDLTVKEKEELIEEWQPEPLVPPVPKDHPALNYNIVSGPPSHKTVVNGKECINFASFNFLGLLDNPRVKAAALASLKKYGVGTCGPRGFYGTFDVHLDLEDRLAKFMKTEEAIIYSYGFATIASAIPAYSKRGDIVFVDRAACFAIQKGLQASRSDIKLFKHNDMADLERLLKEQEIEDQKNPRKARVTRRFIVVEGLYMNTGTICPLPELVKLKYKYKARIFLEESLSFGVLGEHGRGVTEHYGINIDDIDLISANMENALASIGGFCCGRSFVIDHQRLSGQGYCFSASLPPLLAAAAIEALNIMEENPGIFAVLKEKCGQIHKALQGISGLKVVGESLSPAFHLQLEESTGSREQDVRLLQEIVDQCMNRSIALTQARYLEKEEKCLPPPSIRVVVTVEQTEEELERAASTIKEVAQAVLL
T1 sequence (O15270 1-562): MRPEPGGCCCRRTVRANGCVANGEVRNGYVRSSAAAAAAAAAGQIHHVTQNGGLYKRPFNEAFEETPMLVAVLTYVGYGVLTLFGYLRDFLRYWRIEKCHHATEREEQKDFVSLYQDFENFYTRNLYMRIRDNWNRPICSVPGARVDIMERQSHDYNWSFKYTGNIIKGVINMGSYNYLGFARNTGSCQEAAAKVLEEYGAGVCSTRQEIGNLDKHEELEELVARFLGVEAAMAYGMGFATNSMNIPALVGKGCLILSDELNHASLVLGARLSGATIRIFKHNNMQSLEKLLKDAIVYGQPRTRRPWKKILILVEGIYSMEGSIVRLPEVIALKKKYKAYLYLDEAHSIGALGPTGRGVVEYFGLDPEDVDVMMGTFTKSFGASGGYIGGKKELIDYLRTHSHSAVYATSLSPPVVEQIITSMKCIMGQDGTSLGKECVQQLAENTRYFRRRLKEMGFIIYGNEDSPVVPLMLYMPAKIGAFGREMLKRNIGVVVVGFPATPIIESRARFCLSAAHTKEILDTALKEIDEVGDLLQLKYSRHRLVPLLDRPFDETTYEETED
Experimental: An alternative assay for evaluating inhibition of SPT, the enzyme present in commonly cultured cells, is performed with CHO cells or a human cell line. Cells are washed three times with ice-cold phosphate-buffered saline (PBS). A total of 0.5 mL of lysis buffer [50 mM Hepes (pH 8.0) containing 5 mM ethylenediaminetetraacetic acid (EDTA) and 5 mM dithiothreitol (DTT)] is added to each dish. The cells are scraped using a rubber policeman, and are then transferred to a test tube on ice. The cell suspension is sonicated three times for 5 s at 1-2 min intervals on ice. Protein concentrations in cell homogenates are measured using a Bradford protein assay kit (Bio-Rad). […] The radioactivity is measured with a LS6000TA liquid scintillation counter (Beckman). Nonspecific conversion of [^3H] serine to chloroform-soluble species is determined by performing the assay in the absence of palmitoyl CoA. […]
An alternative assay using a non-chlorinated solvent modification of the Blye and Dyer lipid extraction method reported in Smedes (Smedes, F. (1999) Analyst 124, 1711-18) is employed to evaluate exemplary compounds. […] An accurately measured portion of the organic layer (4.0 ml) is added to a scintillation vial with 1 ml of water. […] The amount of [^3H] serine radioactivity incorporated into lipids is quantified in a scintillation counter. […]

SPT [2] = target: T1, SPT; settings: literature; cited from earlier work
mice = settings: literature, cited from earlier work; for protective effect / prevention of progression of emphysema: VEGF receptor blockade model
ApoE knockout mice = settings: literature; cited from earlier work
[3] = test system: diabetic Zucker fatty rat model; settings: literature; cited from earlier work

Structure (SMILES) | inhibition of SPT ([3H] serine radioactivity incorporated into lipids) (SPT [1]) | activity against / inhibition of SPT (SPT [2]) | protective effect / prevention of progression of emphysema (mice) | also measured
CCCCCCCOc1cccc(CCC(O)C(O)C(N)C(=O)O)c1 (stereo not shown) [Compound 12] | moderate activity | – | – | protection of islet cells from fatty acid treatment (apoptotic cells by PI staining) (Rat pancreatic islets; medium with sodium palmitate (Fatty Acid Medium)): fully protect cells from the fatty acid treatment; benefit in comparison to treatment with the control medium (apoptotic cells by PI staining) (Rat pancreatic islets; versus control medium): imparts a benefit in comparison to treatment with the control medium
CCCCCCCCc1ccc(CCC(N)(CO)CO)cc1 [FTY720] | – | do not inhibit SPT | – | –
CCCCCCC(=O)CCCCCC/C=C/C[C@@H](O)[C@H](O)[C@@](N)(CO)C(=O)O [ISP-1] | potent but non-selective inhibition | – | very strong protective effect | IC50 for inhibition of SPT (SPT [2]): sub-nanomolar; atherosclerotic plaque (ApoE knockout mice): dramatic reduction in atherosclerotic plaque
CCCCCCCCc1ccc(CCC(N)(CO)C(=O)O)cc1 (stereo not shown) [compound 2] | – | did not exhibit activity against SPT | – | –
N[C@@H]1CON=C1O [cycloserine] | – | weak inhibition | – | beta cell protective effect [3]: ≈ 50%
CCCC[C@@H](C)[C@@H](OC(=O)C[C@@H](CC(=O)O)C(=O)O)[C@H](C[C@@H](C)C[C@H](O)CCCC[C@@H](O)C[C@H](O)[C@H](C)N)OC(=O)C[C@@H](CC(=O)O)C(=O)O [fumonisin B1] | – | – | less effective | toxicity (mice; emphysema model, higher doses): some toxicity at higher doses
